Source: patent publication US9062041B2 (Bayer Intellectual Property GmbH, priority 2011, dated 2015)

What was measured:
Assay type in all cases: cell-based
[1] = biological target: EP4 subtype of the human PGE2 receptor (Homo sapiens, UniProt P35408); assay: cAMP antagonism test on the human EP4 receptor (HTRF cAMP detection); conditions: selectivity towards hEP4, IC50 measured by cAMP antagonism test
Procedure, shortened: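 Competitive HTRF cAMP read-out (cAMP-d2 vs Eu-cryptate anti-cAMP antibody, 665/620 nm ratio) on lysed human EP4 cells. Compound (0.8 nM–16.5 μM) applied 20 min at RT before 60 min PGE2 challenge (3× solution 0.3 nM, IBMX present); 20 min lysis precedes reading.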

[2] = biological target: EP2 subtype of the human PGE2 receptor (Homo sapiens, UniProt P43116); assay: cAMP antagonism test on the human EP2 receptor (HTRF cAMP detection); conditions: hEP2 receptor, read-out: Antagonism hEP2 IC50
Procedure, shortened: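 Read-out is a competitive HTRF for cAMP: lysate cAMP displaces cAMP-d2 from Eu cryptate-labelled antibody, and antagonism raises the 665/620 nm ratio. Compound (0.8 nM–16.5 μM) added to EP2 cells 20 min at RT before 60 min PGE2 challenge (3× stock 1.5 nM) with IBMX, followed by 20 min lysis.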

[3] = biological target: T1, human PGD receptor (Homo sapiens, UniProt Q13258); assay: cAMP antagonism test on the human prostaglandin D receptor (HTRF cAMP detection); conditions: selectivity towards hDP, IC50 measured by cAMP antagonism test
T1 sequence (Q13258 1-359): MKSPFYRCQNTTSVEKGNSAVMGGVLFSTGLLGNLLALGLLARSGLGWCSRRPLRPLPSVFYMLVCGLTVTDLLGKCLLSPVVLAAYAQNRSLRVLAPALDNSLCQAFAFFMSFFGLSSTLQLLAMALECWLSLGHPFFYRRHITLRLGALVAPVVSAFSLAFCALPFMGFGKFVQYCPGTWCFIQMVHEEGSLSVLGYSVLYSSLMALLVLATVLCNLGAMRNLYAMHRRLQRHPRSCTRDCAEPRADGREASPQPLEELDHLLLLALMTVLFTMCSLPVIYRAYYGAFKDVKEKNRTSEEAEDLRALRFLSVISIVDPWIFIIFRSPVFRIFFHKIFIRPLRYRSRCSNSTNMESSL
Procedure, shortened: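 HTRF competition read-out (665/620 nm ratio ×10000), where higher FRET means less cAMP, i.e. antagonism. Compounds (0.8 nM–16.5 μM) were preincubated 20 min at RT with cells and cAMP-d2, PGD2 (3× solution, 6 nM) in IBMX-containing PBS added for 30 min at RT, then cells lysed 20 min.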

Chain of EP2 subtype of the human PGE2 receptor (P43116 whole entry): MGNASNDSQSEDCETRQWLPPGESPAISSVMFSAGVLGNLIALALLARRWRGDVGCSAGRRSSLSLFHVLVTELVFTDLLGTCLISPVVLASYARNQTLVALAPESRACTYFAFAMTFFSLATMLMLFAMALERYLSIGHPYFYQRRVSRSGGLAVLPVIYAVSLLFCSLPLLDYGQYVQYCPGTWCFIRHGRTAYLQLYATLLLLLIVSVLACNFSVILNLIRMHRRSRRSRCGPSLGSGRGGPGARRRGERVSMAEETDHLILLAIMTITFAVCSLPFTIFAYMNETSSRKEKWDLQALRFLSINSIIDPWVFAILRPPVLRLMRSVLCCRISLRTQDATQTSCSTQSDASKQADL
Chain of EP4 subtype of the human PGE2 receptor (P35408 whole entry): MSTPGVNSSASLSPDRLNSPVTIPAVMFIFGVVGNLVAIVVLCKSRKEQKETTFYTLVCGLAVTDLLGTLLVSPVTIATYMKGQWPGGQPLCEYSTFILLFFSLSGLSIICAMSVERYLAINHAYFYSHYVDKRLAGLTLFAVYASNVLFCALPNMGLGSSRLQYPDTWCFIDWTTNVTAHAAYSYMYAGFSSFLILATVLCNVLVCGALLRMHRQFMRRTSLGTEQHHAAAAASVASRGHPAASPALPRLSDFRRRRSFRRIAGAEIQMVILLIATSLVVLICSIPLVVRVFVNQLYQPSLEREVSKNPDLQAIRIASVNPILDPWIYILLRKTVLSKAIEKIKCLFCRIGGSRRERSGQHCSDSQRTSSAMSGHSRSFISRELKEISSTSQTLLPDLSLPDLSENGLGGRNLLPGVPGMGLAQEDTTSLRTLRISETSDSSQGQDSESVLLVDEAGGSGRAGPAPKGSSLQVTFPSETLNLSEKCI

Compound	Selectivity hEP2/hEP4 [1]	IC50 [2] [nM]	Selectivity hEP2/hDP [3]
Cc1c(C(=O)NCC2CCC2)ccc2nn(CC3CCN(C(=O)c4ccc(Cl)cc4)CC3)cc12 [Example 250, 2-{[1-(4-chlorobenzoyl)piperidin-4-yl]methyl}-N-(cyclobutylmethyl)-4-methyl-2H-indazol-5-carboxamide]	xxx (xxx > 100)	30.6	xxx (xxx > 100)
Cc1c(C(=O)NCC(C)(C)C)ccc2nn(CC3CCN(C(=O)c4ccc(Cl)cc4)CC3)cc12 [Example 251, 2-{[1-(4-chlorobenzoyl)piperidin-4-yl]methyl}-N-(2,2-dimethylpropyl)-4-methyl-2H-indazol-5-carboxamide]	x (x: 1-10)	3810	x (x: 1-10)
Cc1c(C(=O)NCCO)ccc2nn(CC3CCN(C(=O)c4ccc(Cl)cc4)CC3)cc12 [Example 252, 2-{[1-(4-chlorobenzoyl)piperidin-4-yl]methyl}-N-(2-hydroxyethyl)-4-methyl-2H-indazol-5-carboxamide]	xx (xx: 10-100)	295	xx (xx: 10-100)
Cc1c(C(=O)NCCCO)ccc2nn(CC3CCN(C(=O)c4ccc(Cl)cc4)CC3)cc12 [Example 253, 2-{[1-(4-chlorobenzoyl)piperidin-4-yl]methyl}-N-(3-hydroxypropyl)-4-methyl-2H-indazol-5-carboxamide]	xx (xx: 10-100)	168	xx (xx: 10-100)
COCCNC(=O)c1ccc2nn(CC3CN(C(=O)c4ccc(OC(F)(F)F)cc4)C3)cc2c1OC [Example 254, 4-methoxy-N-(2-methoxyethyl)-2-({1-[4-(trifluoromethoxy)benzoyl]azetidin-3-yl}methyl)-2H-indazol-5-carboxamide]	xxx (xxx > 100)	55.2	xxx (xxx > 100)
COCCNC(=O)c1ccc2nn(CC3CN(C(=O)c4ccc(C(F)(F)F)cc4F)C3)cc2c1OC [Example 255, 2-({1-[2-fluoro-4-(trifluoromethyl)benzoyl]azetidin-3-yl}methyl)-4-methoxy-N-(2-methoxyethyl)-2H-indazol-5-carboxamide]	xxx (xxx > 100)	83.5	xxx (xxx > 100)
COCCNC(=O)c1ccc2nn(CC3CN(C(=O)c4ccc(Cl)cc4F)C3)cc2c1OC [Example 257, 2-{[1-(4-chloro-2-fluorobenzoyl)azetidin-3-yl]methyl}-4-methoxy-N-(2-methoxyethyl)-2H-indazol-5-carboxamide]	xxx (xxx > 100)	102	xxx (xxx > 100)
COc1c(C(=O)NCCN2CCOCC2)ccc2nn(CC3CN(C(=O)c4ccc(Cl)cc4)C3)cc12 [Example 258, 2-{[1-(4-chlorobenzoyl)azetidin-3-yl]methyl}-4-methoxy-N-(2-morpholinoethyl)-2H-indazol-5-carboxamide]	xxx (xxx > 100)	109	xxx (xxx > 100)
CCOCCNC(=O)c1ccc2nn(CC3CN(C(=O)c4ccc(Cl)cc4)C3)cc2c1OC [Example 259, 2-{[1-(4-chlorobenzoyl)azetidin-3-yl]methyl}-N-(2-ethoxyethyl)-4-methoxy-2H-indazol-5-carboxamide]	xxx (xxx > 100)	25.6	xxx (xxx > 100)
COc1c(C(=O)NCCN2CCC(F)(F)C2)ccc2nn(CC3CN(C(=O)c4ccc(Cl)cc4)C3)cc12 [Example 260, 2-{[1-(4-chlorobenzoyl)azetidin-3-yl]methyl}-N-[2-(3,3-difluoropyrrolidin-1-yl)ethyl]-4-methoxy-2H-indazol-5-carboxamide]	xxx (xxx > 100)	8.02	xxx (xxx > 100)
COc1c(C(=O)NCCN2CCOCC2)ccc2nn(CC3CCN(C(=O)c4ccc(Cl)cc4)CC3)cc12 [Example 261, 2-{[1-(4-chlorobenzoyl)piperidin-4-yl]methyl}-4-methoxy-N-(2-morpholinoethyl)-2H-indazol-5-carboxamide]	xxx (xxx > 100)	81	xxx (xxx > 100)
COCCNC(=O)c1ccc2nn(CC3CCN(C(=O)c4ccc(Cl)cc4)CC3)cc2c1OC [Example 262, 2-{[1-(4-chlorobenzoyl)piperidin-4-yl]methyl}-4-methoxy-N-(2-methoxyethyl)-2H-indazol-5-carboxamide]	xxx (xxx > 100)	33.4	xxx (xxx > 100)
COc1c(C(=O)NCC(F)(F)F)ccc2nn(CC3CCN(C(=O)c4ccc(Cl)cc4)CC3)cc12 [Example 263, 2-{[1-(4-chlorobenzoyl)piperidin-4-yl]methyl}-4-methoxy-N-(2,2,2-trifluoro-ethyl)-2H-indazol-5-carboxamide]	xx (xx: 10-100)	181	xx (xx: 10-100)
CCOCCNC(=O)c1ccc2nn(CC3CCN(C(=O)c4ccc(Cl)cc4)CC3)cc2c1OC [Example 264, 2-{[1-(4-chlorobenzoyl)piperidin-4-yl]methyl}-N-(2-ethoxyethyl)-4-methoxy-2H-indazol-5-carboxamide]	xxx (xxx > 100)	13.7	xxx (xxx > 100)
COc1c(C(=O)NCCSC(F)(F)F)ccc2nn(CC3CCN(C(=O)c4ccc(Cl)cc4)CC3)cc12 [Example 265, 2-{[1-(4-chlorobenzoyl)piperidin-4-yl]methyl}-4-methoxy-N-{2-[(trifluoromethyl)sulphanyl]ethyl}-2H-indazol-5-carboxamide]	xxx (xxx > 100)	31.5	xxx (xxx > 100)
COCCNC(=O)c1ccc2nn(CC3CCN(C(=O)c4ccc(OC(F)(F)F)cc4)CC3)cc2c1OC [Example 266, 4-methoxy-N-(2-methoxyethyl)-2-({1-[4-(trifluoromethoxy)benzoyl]piperidin-4-yl}methyl)-2H-indazol-5-carboxamide]	xxx (xxx > 100)	18.9	xxx (xxx > 100)
COCCNC(=O)c1ccc2nn(CC3CCN(C(=O)c4ccc(C(F)(F)F)cc4F)CC3)cc2c1OC [Example 267, 2-({1-[2-fluoro-4-(trifluoromethyl)benzoyl]piperidin-4-yl}methyl)-4-methoxy-N-(2-methoxyethyl)-2H-indazol-5-carboxamide]	xxx (xxx > 100)	45.5	xxx (xxx > 100)
COCCNC(=O)c1ccc2nn(CC3CCN(C(=O)c4ccc(S(F)(F)(F)(F)F)cc4)CC3)cc2c1OC [Example 268, 4-methoxy-N-(2-methoxyethyl)-2-({1-[4-(pentafluoro-λ^6-sulphanyl)benzoyl]-piperidin-4-yl}methyl)-2H-indazol-5-carboxamide]	xxx (xxx > 100)	22.9	xxx (xxx > 100)
COCCNC(=O)c1ccc2nn(CC3CCN(C(=O)c4ccc(SC(F)(F)F)cc4)CC3)cc2c1OC [Example 269, 4-methoxy-N-(2-methoxyethyl)-2-[(1-{4-[(trifluoromethyl)sulphanyl]benzoyl}-piperidin-4-yl)methyl]-2H-indazol-5-carboxamide]	xxx (xxx > 100)	7.54	xxx (xxx > 100)
